From PubChem BioAssay (NCI)
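Tested at 5 concentrations; 48 h exposure; 96-well plates; endpoints linearly interpolated, else capped at highest concentration. TGI marks complete inhibition of growth.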

Assays:
Assay in all cases: NCI anticancer screen, dose series, 48 h
786-0 renal = test system: 786-0 renal
A498 renal = test system: A498 renal
A549 NSCLC = test system: A549 NSCLC
ACHN renal = test system: ACHN renal
BT-549 breast = test system: BT-549 breast
CAKI-1 renal = test system: CAKI-1 renal
DU-145 prostate = test system: DU-145 prostate
EKVX NSCLC = test system: EKVX NSCLC
HCC-2998 colon = test system: HCC-2998 colon
HCT-116 colon = test system: HCT-116 colon
HCT-15 colon = test system: HCT-15 colon
HL-60(TB) leukemia = test system: HL-60(TB) leukemia
HOP-62 NSCLC = test system: HOP-62 NSCLC
HOP-92 NSCLC = test system: HOP-92 NSCLC
HS 578T breast = test system: HS 578T breast
HT29 colon = test system: HT29 colon
IGROV1 ovarian = test system: IGROV1 ovarian
K-562 leukemia = test system: K-562 leukemia
KM12 colon = test system: KM12 colon
LOX IMVI melanoma = test system: LOX IMVI melanoma
M14 melanoma = test system: M14 melanoma
MCF7 breast = test system: MCF7 breast
MDA-MB-231 breast = test system: MDA-MB-231 breast
MDA-MB-435 = test system: MDA-MB-435
MDA-N = test system: MDA-N
MOLT-4 leukemia = test system: MOLT-4 leukemia
NCI-H226 lung = test system: NCI-H226 lung
NCI-H23 lung = test system: NCI-H23 lung
NCI-H460 lung = test system: NCI-H460 lung
NCI-H522 lung = test system: NCI-H522 lung
NCI/ADR-RES ovarian = test system: NCI/ADR-RES ovarian
OVCAR-3 ovarian = test system: OVCAR-3 ovarian
OVCAR-4 ovarian = test system: OVCAR-4 ovarian
OVCAR-5 ovarian = test system: OVCAR-5 ovarian
OVCAR-8 ovarian = test system: OVCAR-8 ovarian
PC-3 prostate = test system: PC-3 prostate
RPMI-8226 leukemia = test system: RPMI-8226 leukemia
RXF 393 renal = test system: RXF 393 renal
SF-268 CNS = test system: SF-268 CNS
SF-295 CNS = test system: SF-295 CNS
SF-539 CNS = test system: SF-539 CNS
SK-MEL-2 melanoma = test system: SK-MEL-2 melanoma
SK-MEL-28 melanoma = test system: SK-MEL-28 melanoma
SK-MEL-5 melanoma = test system: SK-MEL-5 melanoma
SNB-75 CNS = test system: SNB-75 CNS
SR leukemia = test system: SR leukemia
SW-620 colon = test system: SW-620 colon
T-47D breast = test system: T-47D breast
TK-10 renal = test system: TK-10 renal
U251 CNS = test system: U251 CNS
UACC-257 melanoma = test system: UACC-257 melanoma
UO-31 renal = test system: UO-31 renal
CCRF-CEM leukemia = test system: CCRF-CEM leukemia
COLO 205 colon = test system: COLO 205 colon
MALME-3M melanoma = test system: MALME-3M melanoma
SK-OV-3 ovarian = test system: SK-OV-3 ovarian
SN12C renal = test system: SN12C renal
SNB-19 CNS = test system: SNB-19 CNS
UACC-62 melanoma = test system: UACC-62 melanoma

In the case of `CC1(C)C2CCC1(C)[C@H](n1c(=O)n([C@@H]3CC4CCC3(C)C4(C)C)c(=O)n([C@@H]3CC4CCC3(C)C4(C)C)c1=O)C2`, the TGI (786-0 renal) is reported as greater than 100 µM, the TGI (A498 renal) is reported as greater than 100 µM and the TGI (A549 NSCLC) is reported as greater than 100 µM. The TGI (ACHN renal) was greater than 100 µM, the TGI (BT-549 breast) was greater than 100 µM and the TGI (CAKI-1 renal) was greater than 100 µM. For the same molecule, the TGI (DU-145 prostate) was greater than 100 µM, the TGI (EKVX NSCLC) was 67.1 µM and the TGI (HCC-2998 colon) was 57.5 µM. The TGI (HCT-116 colon) was greater than 100 µM, the TGI (HCT-15 colon) was greater than 100 µM and the TGI (HL-60(TB) leukemia) was 63.1 µM. The TGI (HOP-62 NSCLC) was greater than 100 µM, the TGI (HOP-92 NSCLC) was greater than 100 µM and the TGI (HS 578T breast) was greater than 100 µM. For the same molecule, the TGI (HT29 colon) was greater than 100 µM, the TGI (IGROV1 ovarian) was greater than 100 µM and the TGI (K-562 leukemia) was greater than 100 µM. For the same molecule, the TGI (KM12 colon) was greater than 100 µM, the TGI (LOX IMVI melanoma) was greater than 100 µM and the TGI (M14 melanoma) was greater than 100 µM. It also gave a TGI (MCF7 breast) greater than 100 µM, a TGI (MDA-MB-231 breast) greater than 100 µM and a TGI (MDA-MB-435) greater than 100 µM. For the same molecule, the TGI (MDA-N) was greater than 100 µM, the TGI (MOLT-4 leukemia) was greater than 100 µM and the TGI (NCI-H226 lung) was 76.4 µM. The TGI (NCI-H23 lung) was greater than 100 µM, the TGI (NCI-H460 lung) was greater than 100 µM and the TGI (NCI-H522 lung) was greater than 100 µM. It also gave a TGI (NCI/ADR-RES ovarian) greater than 100 µM, a TGI (OVCAR-3 ovarian) greater than 100 µM and a TGI (OVCAR-4 ovarian) greater than 100 µM. It also gave a TGI (OVCAR-5 ovarian) greater than 100 µM, a TGI (OVCAR-8 ovarian) greater than 100 µM and a TGI (PC-3 prostate) greater than 100 µM. It also gave a TGI (RPMI-8226 leukemia) greater than 100 µM, a TGI (RXF 393 renal) of 55.8 µM and a TGI (SF-268 CNS) greater than 100 µM. It also gave a TGI (SF-295 CNS) greater than 100 µM, a TGI (SF-539 CNS) of 48.6 µM and a TGI (SK-MEL-2 melanoma) of 72.7 µM. It also gave a TGI (SK-MEL-28 melanoma) greater than 100 µM, a TGI (SK-MEL-5 melanoma) greater than 100 µM and a TGI (SNB-75 CNS) of 46.5 µM. The TGI (SR leukemia) was greater than 100 µM, the TGI (SW-620 colon) was greater than 100 µM and the TGI (T-47D breast) was greater than 100 µM. The TGI (TK-10 renal) was greater than 100 µM, the TGI (U251 CNS) was greater than 100 µM and the TGI (UACC-257 melanoma) was greater than 100 µM. It also gave a TGI (UO-31 renal) greater than 100 µM.
`CC(C)C(C)/C=C\C(C)C1CCC2C3=CC=C4CC(O)CCC4(C)C3CCC21C` (stereo not drawn) gave a TGI (786-0 renal) greater than 60.7 µM, a TGI (A498 renal) greater than 100 µM and a TGI (A549 NSCLC) greater than 100 µM. The TGI (ACHN renal) was greater than 65.7 µM, the TGI (BT-549 breast) was greater than 85.6 µM and the TGI (CAKI-1 renal) was greater than 60.4 µM. The TGI (CCRF-CEM leukemia) was greater than 66.9 µM, the TGI (COLO 205 colon) was greater than 61.6 µM and the TGI (DU-145 prostate) was greater than 100 µM. For the same molecule, the TGI (EKVX NSCLC) was greater than 64.8 µM, the TGI (HCT-116 colon) was greater than 57.2 µM and the TGI (HCT-15 colon) was greater than 71.3 µM. It also gave a TGI (HL-60(TB) leukemia) greater than 77.7 µM, a TGI (HOP-62 NSCLC) greater than 79.5 µM and a TGI (HOP-92 NSCLC) of 70.2 µM. It also gave a TGI (HS 578T breast) greater than 64.2 µM, a TGI (HT29 colon) greater than 55.8 µM and a TGI (IGROV1 ovarian) greater than 54.3 µM. It also gave a TGI (K-562 leukemia) greater than 100 µM, a TGI (KM12 colon) greater than 100 µM and a TGI (LOX IMVI melanoma) greater than 57.2 µM. It also gave a TGI (M14 melanoma) greater than 67.7 µM, a TGI (MALME-3M melanoma) greater than 50.6 µM and a TGI (MCF7 breast) greater than 100 µM. For the same molecule, the TGI (MDA-MB-231 breast) was greater than 61.3 µM, the TGI (MDA-MB-435) was greater than 83.5 µM and the TGI (MDA-N) was greater than 70.5 µM. For the same molecule, the TGI (MOLT-4 leukemia) was 58.3 µM, the TGI (NCI-H226 lung) was greater than 65.3 µM and the TGI (NCI-H23 lung) was greater than 100 µM. It also gave a TGI (NCI-H460 lung) greater than 53.3 µM, a TGI (NCI-H522 lung) greater than 100 µM and a TGI (NCI/ADR-RES ovarian) greater than 70.7 µM. The TGI (OVCAR-3 ovarian) was greater than 80.5 µM, the TGI (OVCAR-4 ovarian) was greater than 100 µM and the TGI (OVCAR-5 ovarian) was greater than 100 µM. The TGI (OVCAR-8 ovarian) was greater than 53.9 µM, the TGI (PC-3 prostate) was greater than 100 µM and the TGI (RPMI-8226 leukemia) was greater than 100 µM. It also gave a TGI (RXF 393 renal) greater than 58.7 µM, a TGI (SF-268 CNS) greater than 70.2 µM and a TGI (SF-295 CNS) greater than 100 µM. The TGI (SF-539 CNS) was greater than 64 µM, the TGI (SK-MEL-2 melanoma) was greater than 100 µM and the TGI (SK-MEL-28 melanoma) was greater than 60.5 µM. For the same molecule, the TGI (SK-MEL-5 melanoma) was 62.3 µM, the TGI (SK-OV-3 ovarian) was greater than 100 µM and the TGI (SN12C renal) was greater than 60.2 µM. It also gave a TGI (SNB-19 CNS) greater than 100 µM, a TGI (SNB-75 CNS) greater than 73.1 µM and a TGI (SR leukemia) greater than 61.8 µM. It also gave a TGI (SW-620 colon) greater than 72.3 µM, a TGI (T-47D breast) greater than 100 µM and a TGI (TK-10 renal) greater than 100 µM. It also gave a TGI (U251 CNS) greater than 47.7 µM, a TGI (UACC-257 melanoma) greater than 100 µM and a TGI (UACC-62 melanoma) greater than 66.6 µM. For the same molecule, the TGI (UO-31 renal) was greater than 79 µM.
Work on `Cc1ccc(S(=O)(=O)N/N=C/C2(c3ccccc3)c3ccccc3-c3ccccc32)cc1` yielded a TGI (786-0 renal) of 31.2 µM, a TGI (A498 renal) of 33 µM and a TGI (A549 NSCLC) of 19.8 µM. The TGI (ACHN renal) was 88.3 µM, the TGI (BT-549 breast) was 27.7 µM and the TGI (CAKI-1 renal) was 62.4 µM. It also gave a TGI (CCRF-CEM leukemia) greater than 100 µM, a TGI (COLO 205 colon) of 13.8 µM and a TGI (DU-145 prostate) of 27.1 µM. The TGI (EKVX NSCLC) was 30.2 µM, the TGI (HCC-2998 colon) was 26.3 µM and the TGI (HCT-116 colon) was 20.3 µM. It also gave a TGI (HCT-15 colon) of 22.4 µM, a TGI (HL-60(TB) leukemia) greater than 100 µM and a TGI (HOP-62 NSCLC) of 32.1 µM. It also gave a TGI (HOP-92 NSCLC) of 25.5 µM, a TGI (HS 578T breast) of 39.3 µM and a TGI (HT29 colon) of 26.3 µM. The TGI (IGROV1 ovarian) was 23.5 µM, the TGI (K-562 leukemia) was greater than 100 µM and the TGI (KM12 colon) was 20.2 µM. For the same molecule, the TGI (LOX IMVI melanoma) was 26.1 µM, the TGI (M14 melanoma) was 23.3 µM and the TGI (MALME-3M melanoma) was 19.2 µM. For the same molecule, the TGI (MCF7 breast) was 29.6 µM, the TGI (MDA-MB-231 breast) was 20.8 µM and the TGI (MDA-MB-435) was 24.4 µM. For the same molecule, the TGI (MDA-N) was 14.9 µM, the TGI (MOLT-4 leukemia) was greater than 100 µM and the TGI (NCI-H226 lung) was 34.1 µM. It also gave a TGI (NCI-H23 lung) of 37.1 µM, a TGI (NCI-H460 lung) of 18.2 µM and a TGI (NCI-H522 lung) of 28.6 µM. It also gave a TGI (NCI/ADR-RES ovarian) of 24.6 µM, a TGI (OVCAR-3 ovarian) of 20.8 µM and a TGI (OVCAR-4 ovarian) of 24.3 µM. The TGI (OVCAR-5 ovarian) was 25.1 µM, the TGI (OVCAR-8 ovarian) was 31.5 µM and the TGI (PC-3 prostate) was 13.4 µM. The TGI (RPMI-8226 leukemia) was 87.2 µM, the TGI (RXF 393 renal) was 27.3 µM and the TGI (SF-268 CNS) was 52.7 µM. It also gave a TGI (SF-295 CNS) of 16.1 µM, a TGI (SF-539 CNS) of 30.9 µM and a TGI (SK-MEL-2 melanoma) of 25.9 µM. It also gave a TGI (SK-MEL-28 melanoma) of 28.6 µM, a TGI (SK-MEL-5 melanoma) of 23.9 µM and a TGI (SK-OV-3 ovarian) of 39.8 µM. It also gave a TGI (SN12C renal) of 23.9 µM, a TGI (SNB-19 CNS) of 73 µM and a TGI (SR leukemia) greater than 100 µM. The TGI (SW-620 colon) was 31 µM, the TGI (T-47D breast) was 44 µM and the TGI (TK-10 renal) was 98.5 µM. It also gave a TGI (U251 CNS) of 26.7 µM, a TGI (UACC-257 melanoma) of 31.4 µM and a TGI (UACC-62 melanoma) of 27.3 µM. It also gave a TGI (UO-31 renal) of 18.6 µM.
